Reference: patent US7759337B2, “Phthalazine compounds and methods of use” (Amgen Inc., priority 2005, dated 2010)

test system: production of TNF by monocytes activated with bacterial lipopolysaccharide (LPS); assay: Lipopolysaccharide-activated monocyte TNF production assay; format: cell-based; conditions: Homo sapiens; whole blood monocyte assay (LPS induced TNF release)
Outline: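 Adherent human PBMC-derived monocytes preincubated 60 min with nine two-fold compound dilutions, then stimulated with E. coli K532 LPS (30 ng/mL in the added medium) for 4 h at 37 °C. Supernatant TNF measured by sandwich ELISA; IC50 is the compound concentration halving TNF production, from second-order polynomial fits.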

| SMILES | IC50 [µM] |
| --- | --- |
| Cc1ccc([N+](=O)[O-])cc1-c1ccc2c(N3CCOCC3)nncc2c1 [Example 137, 6-(2-methyl-5-nitrophenyl)-1-morpholin-4-ylphthalazine] | ≤ 5 |
| CCOC(=O)c1ccc(C)c(-c2ccc3c(NC(C)C)nncc3c2)c1 [Example 138, ethyl 3-[1-(isopropylamino)phthalazin-6-yl]-4-methylbenzoate] | ≤ 5 |
| Cc1ccc(C(=O)NC2CC2)cc1-c1ccc2c(N3CCN(C(=O)NCc4ccc(F)cc4)CC3)nncc2c1 [Example 139, 4-(6-{5-[(cyclopropylamino)carbonyl]-2-methylphenyl}phthalazin-1-yl)-N-(4-fluorobenzyl)piperazine-1-carboxamide] | ≤ 5 |
| Cc1ccc(C(=O)NC2CC2)cc1-c1ccc2c(N3CCN[C@H](C)C3)nncc2c1 [Example 140, N-cyclopropyl-4-methyl-3-{1-[(3R)-3-methylpiperazin-1-yl]phthalazin-6-yl}benzamide] | ≤ 5 |
| Cc1ccc(C(=O)NC2CC2)cc1-c1ccc2c(N)nncc2c1 [Example 141, 3-(1-aminophthalazin-6-yl)-N-cyclopropyl-4-methylbenzamide] | ≤ 5 |
| Cc1ccc(C(=O)NC2CC2)cc1-c1ccc2c(N3C[C@@H](C)O[C@@H](C)C3)nncc2c1 [Example 142, N-cyclopropyl-3-{1-[(2R,6S)-2,6-dimethylmorpholin-4-yl]phthalazin-6-yl}-4-methylbenzamide] | ≤ 5 |
| Cc1ccc(C(N)=O)cc1-c1ccc2c(N3CCNC[C@H]3C)nncc2c1 [Example 143, 4-methyl-3-{1-[(2R)-2-methylpiperazin-1-yl]phthalazin-6-yl}benzamide] | ≤ 5 |
| Cc1ccc(C(=O)NC2CC2)cc1-c1ccc2c(N3C[C@@H]4C[C@H]3CN4C(C)C)nncc2c1 [Example 144, N-cyclopropyl-3-{1-[(1S,4S)-5-isopropyl-2,5-diazabicyclo[2.2.1]hept-2-yl]phthalazin-6-yl}-4-methylbenzamide] | ≤ 5 |
| Cc1ccc(C(N)=O)cc1-c1ccc2c(Cl)nncc2c1 [Example 145, 3-(1-chlorophthalazin-6-yl)-4-methylbenzamide] | ≤ 5 |
| Cc1ccc(C(N)=O)cc1-c1ccc2c(N3CCNC[C@@H]3C)nncc2c1 [Example 146, 4-methyl-3-{1-[(2S)-2-methylpiperazin-1-yl]phthalazin-6-yl}benzamide] | ≤ 5 |
| Cc1ccc(C(=O)NC2CC2)cc1-c1ccc2c(N3C[C@@H](C)NC[C@@H]3C)nncc2c1 [Example 147, N-cyclopropyl-3-{1-[(2S,5R)-2,5-dimethylpiperazin-1-yl]phthalazin-6-yl}-4-methylbenzamide] | ≤ 5 |
| Cc1ccc(C(=O)NC2CC2)cc1-c1ccc2c(N3C[C@@H](C)N[C@@H](C)C3)nncc2c1 [Example 148, N-cyclopropyl-3-{1-[(3R,5S)-3,5-dimethylpiperazin-1-yl]phthalazin-6-yl}-4-methylbenzamide] | ≤ 5 |
| Cc1ccc(C(=O)NC2CC2)cc1-c1ccc2c(N3CCN[C@@H](C)C3)nncc2c1 [Example 149, N-cyclopropyl-4-methyl-3-{1-[(3S)-3-methylpiperazin-1-yl]phthalazin-6-yl}benzamide] | ≤ 5 |
| Cc1ccc(C(=O)NC2CC2)cc1-c1ccc2c(C3CCN(C)CC3)nncc2c1 [Example 150, N-cyclopropyl-4-methyl-3-[1-(1-methylpiperidin-4-yl)phthalazin-6-yl]benzamide] | ≤ 5 |
| Cc1ccc(C(=O)NC2CC2)cc1-c1ccc2c(N3CCC[C@H]3CO)nncc2c1 [Example 151, N-cyclopropyl-3-{1-[(2S)-2-(hydroxymethyl)pyrrolidin-1-yl]phthalazin-6-yl}-4-methylbenzamide] | ≤ 5 |
| Cc1ccc(C(=O)NC2CC2)cc1-c1ccc2c(N3CCC(C)(O)CC3)nncc2c1 [Example 152, N-cyclopropyl-3-[1-(4-hydroxy-4-methylpiperidin-1-yl)phthalazin-6-yl]-4-methylbenzamide] | ≤ 5 |
| Cc1ccc(C(=O)NC2CC2)cc1-c1ccc2c(C3=CCN(C(=O)OC(C)(C)C)CC3)nncc2c1 [Example 153, tert-butyl 4-(6-{5-[(cyclopropylamino)carbonyl]-2-methylphenyl}phthalazin-1-yl)-3,6-dihydropyridine-1(2H)-carboxylate] | ≤ 5 |
| Cc1ccc(C(=O)NC2CC2)cc1-c1ccc2c(N3CCC[C@@H]4CCCC[C@@H]43)nncc2c1 [Example 154, 3-{1-[(4aS,8aS)-octahydroquinolin-1(2H)-yl]phthalazin-6-yl}-N-cyclopropyl-4-methylbenzamide] | ≤ 5 |
| Cc1ccc(C(N)=O)cc1-c1ccc2c(OC(C)C)nncc2c1 [Example 155, 3-(1-isopropoxyphthalazin-6-yl)-4-methylbenzamide] | ≤ 5 |
| Cc1ccc(C(N)=O)cc1-c1ccc2c(-c3ccccc3Cl)nncc2c1 [Example 156, 3-[1-(2-chlorophenyl)phthalazin-6-yl]-4-methylbenzamide] | ≤ 5 |
| CC(=O)N1CCN(c2nncc3cc(-c4cc(C(=O)NC5CC5)ccc4C)ccc23)CC1 [Example 157, 3-[1-(4-acetylpiperazin-1-yl)phthalazin-6-yl]-N-cyclopropyl-4-methylbenzamide] | ≤ 5 |

| SMILES | IC50 [µM] |
| --- | --- |
| Cc1ccc(C(=O)NC2CC2)cc1-c1ccc2c(NC3CCCCC3)nncc2c1 [Example 158, 3-[1-(cyclohexylamino)phthalazin-6-yl]-N-cyclopropyl-4-methylbenzamide] | ≤ 5 |
| Cc1ccc(C(=O)NC2CC2)cc1-c1ccc2c(N3CCCCC3)nncc2c1 [Example 159, N-cyclopropyl-4-methyl-3-(1-piperidin-1-ylphthalazin-6-yl)benzamide] | ≤ 5 |
| Cc1ccc(C(=O)NC2CC2)cc1-c1ccc2c(N3CCO[C@@H](CO)C3)nncc2c1 [Example 160, N-cyclopropyl-3-{1-[(2R)-2-(hydroxymethyl)morpholin-4-yl]phthalazin-6-yl}-4-methylbenzamide] | ≤ 5 |
| Cc1ccc(C(=O)NC2CC2)cc1-c1ccc2c(N3CCN(c4c(C)cccc4C)CC3)nncc2c1 [Example 162, N-cyclopropyl-3-{1-[4-(2,6-dimethylphenyl)piperazin-1-yl]phthalazin-6-yl}-4-methylbenzamide] | ≤ 5 |
| Cc1ccc(C(=O)NC2CC2)cc1-c1ccc2c(N3CCNC(=O)C3)nncc2c1 [Example 163, N-cyclopropyl-4-methyl-3-[1-(3-oxopiperazin-1-yl)phthalazin-6-yl]benzamide] | ≤ 5 |
| Cc1ccc(C(=O)NC2CC2)cc1-c1ccc2c(Cl)nncc2c1 [Example 164, 3-(1-chlorophthalazin-6-yl)-N-cyclopropyl-4-methylbenzamide] | ≤ 5 |
| Cc1ccc(C(=O)NC2CC2)cc1-c1ccc2c(N3CCNCC3)nncc2c1 [Example 165, N-cyclopropyl-4-methyl-3-(1-piperazin-1-ylphthalazin-6-yl)benzamide] | ≤ 5 |
| Cc1ccc(C(=O)NC2CC2)cc1-c1ccc2c(N3CC[C@@H](O)C3)nncc2c1 [Example 166, N-cyclopropyl-3-{1-[(3R)-3-hydroxypyrrolidin-1-yl]phthalazin-6-yl}-4-methylbenzamide] | ≤ 5 |
| Cc1ccc(C(=O)NC2CC2)cc1-c1ccc2c(N3CCC4(CC3)OCCO4)nncc2c1 [Example 167, N-cyclopropyl-3-[1-(1,4-dioxa-8-azaspiro[4.5]dec-8-yl)phthalazin-6-yl]-4-methylbenzamide] | ≤ 5 |
| Cc1ccc(C(=O)NC2CC2)cc1-c1ccc2c(OC(C)C)nncc2c1 [Example 168, N-cyclopropyl-3-(1-isopropoxyphthalazin-6-yl)-4-methylbenzamide] | ≤ 5 |
| COc1nncc2cc(-c3cc(C(=O)NC4CC4)ccc3C)ccc12 [Example 169, N-cyclopropyl-3-(1-methoxyphthalazin-6-yl)-4-methylbenzamide] | ≤ 5 |
| Cc1ccc(C(=O)NC2CC2)cc1-c1ccc2c(-c3ccccc3Cl)nncc2c1 [Example 170, 3-[1-(2-chlorophenyl)phthalazin-6-yl]-N-cyclopropyl-4-methylbenzamide] | ≤ 5 |
| Cc1ccc(C(N)=O)cc1-c1ccc2c(N3C[C@@H](C)OC[C@H]3C)nncc2c1 [Example 171, 3-{1-[(2R,5R)-2,5-dimethylmorpholin-4-yl]phthalazin-6-yl}-4-methylbenzamide] | ≤ 5 |
| Cc1ccc(C(=O)NC2CC2)cc1-c1ccc2c(NC(C)C)nncc2c1 [Example 172, N-cyclopropyl-3-[1-(isopropylamino)phthalazin-6-yl]-4-methylbenzamide] | ≤ 5 |
| Cc1ccc(C(=O)NC2CC2)cc1-c1ccc2c(N3C[C@H](C)OC[C@H]3C)nncc2c1 [Example 173, N-cyclopropyl-3-{1-[(2S,5R)-2,5-dimethylmorpholin-4-yl]phthalazin-6-yl}-4-methylbenzamide] | ≤ 5 |
| Cc1ccc(C(=O)NC2CC2)cc1-c1ccc2c(N3C[C@@H](C)OC[C@H]3C)nncc2c1 [Example 174, N-cyclopropyl-3-{1-[(2R,5R)-2,5-dimethylmorpholin-4-yl]phthalazin-6-yl}-4-methylbenzamide] | ≤ 5 |
| Cc1ccc(C(N)=O)cc1-c1ccc2c(N3CCOCC3)nncc2c1 [Example 175, 4-methyl-3-(1-morpholin-4-ylphthalazin-6-yl)benzamide] | ≤ 5 |
| Cc1ccc(C(N)=O)cc1-c1ccc2c(-c3ccccc3C)nncc2c1 [Example 176, 4-methyl-3-[1-(2-methylphenyl)phthalazin-6-yl]benzamide] | ≤ 5 |
| NC(=O)c1ccc(F)c(-c2ccc3c(N4CCOCC4)nncc3c2)c1 [Example 177, 4-fluoro-3-(1-morpholin-4-ylphthalazin-6-yl)benzamide] | ≤ 5 |
| Cc1ccc(C(=O)NC2CC2)cc1-c1ccc2c(N3CCOC[C@@H]3C)nncc2c1 [Example 178, N-cyclopropyl-4-methyl-3-{1-[(3S)-3-methylmorpholin-4-yl]phthalazin-6-yl}benzamide] | ≤ 5 |
| Cc1ccc(C(N)=O)cc1-c1ccc2c(NC(C)C)nncc2c1 [Example 179, 3-[1-(isopropylamino)phthalazin-6-yl]-4-methylbenzamide] | ≤ 5 |
